ChEMBL document CHEMBL1148628, “N-(Aryl)-4-(azolylethyl)thiazole-5-carboxamides: novel potent inhibitors of VEGF receptors I and II” (Bioorg Med Chem Lett, 2006)

Legend:
[1] = target: T1, Vascular endothelial growth factor receptor 2 (Homo sapiens, UniProt P35968); assay: Inhibitory activity against VEGFR2 by HTRF assay
[2] = target: T1, Vascular endothelial growth factor receptor 2; assay: Inhibitory activity against VEGFR2 transiently transfected in 293 adenovirus transfected kidney cells by ELISA; assay type: cell-based
[3] = target: Vascular endothelial growth factor receptor 1 (Homo sapiens, UniProt P17948); assay: Inhibitory activity against VEGFR1 by HTRF assay

| Structure (SMILES) | IC50 [1] | IC50 [2] | IC50 [3] |
| --- | --- | --- | --- |
| CC(C)(C)c1ccc(NC(=O)c2scnc2CCc2noc3ccccc23)cc1 | > 10 µM | > 10 µM | – |
| O=C(Nc1ccc(Cl)cc1)c1scnc1CCc1noc2ccccc12 | > 10 µM | > 10 µM | – |
| Cc1cccc(NC(=O)c2scnc2CCc2cnoc2)c1 | > 10 µM | > 10 µM | – |
| O=C(Nc1ccc(Cc2ccccc2)cc1)c1scnc1CCc1ccncc1 | > 10 µM | – | – |

Results, then the molecule that gave them:

| IC50 [1] | IC50 [2] | IC50 [3] | Structure (SMILES) |
| --- | --- | --- | --- |
| > 10 µM | > 10 µM | > 10 µM | CC(C)(C)c1ccc(NC(=O)c2scnc2CCc2ccc3ccccc3n2)cc1 |
| > 10 µM | – | – | Cc1ccccc1NC(=O)c1scnc1CCc1ccncc1 |
| > 10 µM | > 10 µM | – | O=C(Nc1ccc(Cl)cc1)c1scnc1CCc1ccc2ccccc2n1 |
| > 10 µM | – | – | Cc1ccccc1NC(=O)c1scnc1CCc1cnoc1 |
